Measurements published in patent US9624214B2, “Amino-substituted imidazo[1,2-a]pyridinecarboxamides and their use” (BAYER PHARMA AKTIENGESELLSCHAFT, priority 2012, dated 2017).
Structures can show the parent of a compound that is named as a salt.

These compounds were tested against T1, recombinant guanylate cyclase reporter cell line (Rattus norvegicus, UniProt P19686+P20595) (assay: B-2. Action on recombinant guanylate cyclase reporter cell line). Details: MEC = minimal effective concentration; in some cases mean values from individual determinations.
T1 construct: expressed in transfected cells
T1 sequence (P20595 1-619): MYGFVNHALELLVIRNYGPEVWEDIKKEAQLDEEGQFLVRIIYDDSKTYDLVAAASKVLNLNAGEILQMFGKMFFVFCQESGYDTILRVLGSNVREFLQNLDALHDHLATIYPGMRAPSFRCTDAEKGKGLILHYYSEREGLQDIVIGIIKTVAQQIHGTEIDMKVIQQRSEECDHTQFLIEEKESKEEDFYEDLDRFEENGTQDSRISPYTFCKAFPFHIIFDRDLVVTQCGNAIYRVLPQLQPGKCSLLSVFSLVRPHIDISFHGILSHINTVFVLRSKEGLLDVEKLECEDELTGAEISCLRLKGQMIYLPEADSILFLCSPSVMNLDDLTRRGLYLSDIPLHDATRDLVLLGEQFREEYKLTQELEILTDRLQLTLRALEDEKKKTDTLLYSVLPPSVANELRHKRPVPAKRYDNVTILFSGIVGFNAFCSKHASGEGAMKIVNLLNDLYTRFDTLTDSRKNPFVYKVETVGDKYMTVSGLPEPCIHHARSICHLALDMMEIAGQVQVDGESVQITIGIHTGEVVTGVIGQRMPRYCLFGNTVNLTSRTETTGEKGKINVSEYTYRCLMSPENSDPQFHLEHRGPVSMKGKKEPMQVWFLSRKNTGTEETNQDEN
T1 sequence (P19686 1-690): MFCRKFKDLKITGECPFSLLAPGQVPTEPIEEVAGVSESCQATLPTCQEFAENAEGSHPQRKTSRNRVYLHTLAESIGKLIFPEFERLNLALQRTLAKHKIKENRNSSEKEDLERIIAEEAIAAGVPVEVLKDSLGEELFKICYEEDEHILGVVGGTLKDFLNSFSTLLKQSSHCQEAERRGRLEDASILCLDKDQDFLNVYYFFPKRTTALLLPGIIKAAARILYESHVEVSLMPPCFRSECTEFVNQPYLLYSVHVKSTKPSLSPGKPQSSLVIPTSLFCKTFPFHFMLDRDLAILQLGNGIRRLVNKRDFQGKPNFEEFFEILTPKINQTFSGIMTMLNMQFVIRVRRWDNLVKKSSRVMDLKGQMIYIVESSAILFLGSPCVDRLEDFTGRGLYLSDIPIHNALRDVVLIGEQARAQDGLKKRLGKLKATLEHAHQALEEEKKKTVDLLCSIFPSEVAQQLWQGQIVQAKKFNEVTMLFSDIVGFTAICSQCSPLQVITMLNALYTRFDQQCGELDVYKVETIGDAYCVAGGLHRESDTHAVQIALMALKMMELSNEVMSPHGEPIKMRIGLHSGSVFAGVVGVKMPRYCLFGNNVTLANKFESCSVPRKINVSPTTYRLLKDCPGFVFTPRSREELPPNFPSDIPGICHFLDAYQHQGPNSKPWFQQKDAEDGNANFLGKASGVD
Assay type: cell-based
Procedure: B-2. Action on Recombinant Guanylate Cyclase Reporter Cell Line
The cellular action of the compounds according to the invention is determined on a recombinant guanylate cyclase reporter cell line, as described in F. Wunder et al., Anal. Biochem. 339, 104-112 (2005).
Representative MEC values (MEC=minimal effective concentration) for the compounds according to the invention are shown in the following table (in some cases as mean values obtained from individual determinations): […]
`Cc1nc2c(OCc3c(F)cccc3F)cc(Cl)cn2c1C(=O)NCC(C)(N)CC(C)C` (racemic) [Example 225, rac-N-(2-Amino-2,4-dimethylpentyl)-6-chloro-8-[(2,6-difluorobenzyl)oxy]-2-methylimidazo[1,2-a]pyridine-3-carboxamide] showed an MEC of 0.30 µM.
In the case of `Cc1nc2c(OCc3c(F)cccc3F)cccn2c1C(=O)NCC(N)C(F)(F)C(F)F` (racemic) [Example 230, rac-N-(2-Amino-3,3,4,4-tetrafluorobutyl)-8-[(2,6-difluorobenzyl)oxy]-2-methylimidazo[1,2-a]-pyridine-3-carboxamide], the MEC is reported as 1.00 µM.
With `CCCC(C)(N)CNC(=O)c1c(C)nc2c(OCc3c(F)cccc3F)cc(C)cn12` (racemic) [Example 232, rac-N-(2-Amino-2-methylpentyl)-8-[(2,6-difluorobenzyl)oxy]-2,6-dimethylimidazo[1,2-a]pyridine-3-carboxamide] the MEC was 0.10 µM.
`Cc1cc(OCc2c(F)cccc2F)c2nc(C)c(C(=O)NCC3CCc4ccccc4N3)n2c1` (racemic) [Example 235, rac-8-[(2,6-Difluorobenzyl)oxy]-2,6-dimethyl-N-(1,2,3,4-tetrahydroquinolin-2-ylmethyl)imidazo-[1,2-a]pyridine-3-carboxamide] gave an MEC of 0.30 µM.
In the case of `Cc1nc2c(OCc3c(F)cccc3F)cc(Cl)cn2c1C(=O)NCC(C)(N)C(F)(F)F` (racemic) [Example 236, rac-N-(2-Amino-3,3,3-trifluoro-2-methylpropyl)-6-chloro-8-[(2,6-difluorobenzyl)oxy]-2-methylimidazo[1,2-a]pyridine-3-carboxamide], the MEC is reported as 0.30 µM.
Compound `Cc1cc(OCc2c(F)cccc2F)c2nc(C)c(C(=O)NCC(C)(N)C(F)(F)F)n2c1` (racemic) [Example 239, rac-N-(2-Amino-3,3,3-trifluoro-2-methylpropyl)-8-[(2,6-difluorobenzyl)oxy]-2,6-dimethyl-imidazo[1,2-a]pyridine-3-carboxamide] has an MEC of 0.30 µM.
`CCCC(C)(N)CNC(=O)c1c(C)nc2c(OCc3c(F)cccc3F)cc(Cl)cn12` (racemic) [Example 244, rac-N-(2-Amino-2-methylpentyl)-6-chloro-8-[(2,6-difluorobenzyl)oxy]-2-methylimidazo[1,2-a]-pyridine-3-carboxamide] showed an MEC of 0.30 µM.
With `Cc1cc(OCCC(C)C)c2nc(C)c(C(=O)NCC(C)(N)CC(C)C)n2c1` (racemic) [Example 249, rac-N-(2-Amino-2,4-dimethylpentyl)-2,6-dimethyl-8-(3-methylbutoxy)imidazo[1,2-a]pyridine-3-carboxamide] the MEC was 1.00 µM.
Compound `Cc1nc2c(OCc3c(F)cccc3F)cccn2c1C(=O)NCC1CCc2ccccc2N1` (racemic) [Example 250, rac-8-[(2,6-Difluorobenzyl)oxy]-2-methyl-N-(1,2,3,4-tetrahydroquinolin-2-ylmethyl)imidazo[1,2-a]pyridine-3-carboxamide] has an MEC of 1.00 µM.
In the case of `CCC(C)(N)CNC(=O)c1c(C)nc2c(OCc3c(F)cccc3F)cccn12` (racemic) [Example 254, rac-N-(2-Amino-2-methylbutyl)-8-[(2,6-difluorobenzyl)oxy]-2-methylimidazo[1,2-a]pyridine-3-carboxamide], the MEC is reported as 0.30 µM.
`Cc1cc(OCCC(C(F)(F)F)C(F)(F)F)c2nc(C)c(C(=O)NCC(C)(N)CC(C)C)n2c1` (racemic) [Example 258, rac-N-(2-Amino-2,4-dimethylpentyl)-2,6-dimethyl-8-[4,4,4-trifluoro-3-(trifluoromethyl)butoxy]-imidazo[1,2-a]pyridine-3-carboxamide] was tested, and the MEC was 1.00 µM.
Work on `Cc1cc(OCc2c(F)cccc2F)c2nc(C)c(C(=O)NCC(C)(N)C3CC3)n2c1` (racemic) [Example 259, rac-N-(2-Amino-2-cyclopropylpropyl)-8-[(2,6-difluorobenzyl)oxy]-2,6-dimethylimidazo[1,2-a]-pyridine-3-carboxamide] yielded an MEC of 0.03 µM.
Work on `Cc1cc(OCc2c(F)cccc2F)c2nc(C)c(C(=O)NCC(C)(N)CCOCc3ccccc3)n2c1` (racemic) [Example 262, rac-N-[2-Amino-4-(benzyloxy)-2-methylbutyl]-8-[(2,6-difluorobenzyl)oxy]-2,6-dimethylimidazo-[1,2-a]pyridine-3-carboxamide] yielded an MEC of 0.10 µM.
`Cc1nc2c(OCc3c(F)cccc3F)cccn2c1C(=O)NCC(C)(N)COCc1ccccc1` (racemic) [Example 263, rac-N-[2-amino-3-(benzyloxy)-2-methylpropyl]-8-[(2,6-difluorobenzyl)oxy]-2-methylimidazo[1,2-a]pyridine-3-carboxamide] showed an MEC of 1.00 µM.
Work on `Cc1nc2c(OCc3c(F)cccc3F)cccn2c1C(=O)NCC(C)(N)CCOCc1ccccc1` (racemic) [Example 264, rac-N-[2-amino-4-(benzyloxy)-2-methylbutyl]-8-[(2,6-difluorobenzyl)oxy]-2-methylimidazo[1,2-a]pyridine-3-carboxamide] yielded an MEC of 0.03 µM.
`Cc1cc(OCc2c(F)cccc2F)c2nc(C)c(C(=O)NCC(C)(N)COCc3ccccc3)n2c1` (racemic) [Example 265, rac-N-[2-amino-3-(benzyloxy)-2-methylpropyl]-8-[(2,6-difluorobenzyl)oxy]-2,6-dimethylimidazo[1,2-a]pyridine-3-carboxamide] gave an MEC of 0.30 µM.
For `Cc1cc(OCc2c(F)cccc2F)c2nc(C)c(C(=O)NCC(C)(N)CCO)n2c1` (racemic) [Example 270, rac-N-(2-Amino-4-hydroxy-2-methylbutyl)-8-[(2,6-difluorobenzyl)oxy]-2,6-dimethylimidazo[1,2-a]pyridine-3-carboxamide], the MEC was 1.00 µM.
For `Cc1nc2c(OCc3c(F)cccc3F)cccn2c1C(=O)NCC(C)(N)CO` (racemic) [Example 273, rac-N-(2-Amino-3-hydroxy-2-methylpropyl)-8-[(2,6-difluorobenzyl)oxy]-2-methylimidazo[1,2-a]-pyridine-3-carboxamide], the MEC was 1.00 µM.
In the case of `CCCC(C)(N)CNC(=O)c1c(C)nc2c(OCc3c(F)cccc3F)c(F)ccn12` (racemic) [Example 277, rac-N-(2-Amino-2-methylpentyl)-8-[(2,6-difluorobenzyl)oxy]-7-fluoro-2-methylimidazo[1,2-a]-pyridine-3-carboxamide], the MEC is reported as 1.00 µM.
Compound `Cc1cc(OCc2c(F)cccc2F)c2nc(C)c(C(=O)NCC(C)(N)CF)n2c1` (racemic) [Example 282, rac-N-(2-amino-3-fluoro-2-methylpropyl)-8-[(2,6-difluorobenzyl)oxy]-2,6-dimethylimidazo[1,2-a]pyridine-3-carboxamide Formate] has an MEC of 0.3 µM.
`CCCC(C)(N)CNC(=O)c1c(C)nc2c(OCc3c(F)ccc(F)c3F)cc(C)cn12` (racemic) [Example 293, rac-N-(2-amino-2-methylpentyl)-2,6-dimethyl-8-[(2,3,6-trifluorobenzyl)oxy]imidazo[1,2-a]pyridine-3-carboxamide] gave an MEC of 0.03 µM.
With `Cc1cc(OCc2c(F)cccc2F)c2nc(C)c(C(=O)NCC(C)(N)Cc3ccc(F)cc3)n2c1` (racemic) [Example 296, rac-N-[2-amino-3-(4-fluorophenyl)-2-methylpropyl]-8-[(2,6-difluorobenzyl)oxy]-2,6-dimethylimidazo[1,2-a]pyridine-3-carboxamide] the MEC was 0.10 µM.
